Like-named read-outs stand apart in the source and are kept apart here.
Molecular target: CSF1R (Homo sapiens, UniProt P07333)
Test: KINOMEscan competition binding assay for CSF1R
Parameters: DNA tag for qPCR (not a peptide); host or cells: E. coli/T7 phage or HEK-293
Settings: for Kd: read-out: CSF1R kinase binding activity (Kd)
Method: KINOMEscan™ is based on a competition binding assay that quantitatively measures the ability of a compound to compete with an immobilized, active-site directed ligand. The assay is performed by combining three components: DNA-tagged kinase; immobilized ligand; and a test compound. The ability of the test compound to compete with the immobilized ligand is measured via quantitative PCR of the DNA tag.
E. coli were grown to log-phase and infected with T7 phage and incubated with shaking at 32° C. until lysis. The lysates were centrifuged and filtered to remove cell debris. The remaining kinases were produced in HEK-293 cells and subsequently tagged with DNA for qPCR detection. Streptavidin-coated magnetic beads were treated with biotinylated small molecule ligands for 30 minutes at room temperature to generate affinity resins for kinase assays. The liganded beads were blocked with excess biotin and washed with blocking buffer (SeaBlock (Pierce), 1% BSA, 0.05% Tween 20, 1 mM DTT) to remove unbound ligand and to reduce non-specific binding. Binding reactions were assembled by combining kinases, liganded affinity beads, and test compounds in 1× binding buffer (20% SeaBlock, 0.17×PBS, 0.05% Tween 20, 6 mM DTT). Test compounds were prepared as 111× stocks in 100% DMSO. Kds were determined using an 11-point 3-fold compound dilution series with three DMSO control points. All compounds for Kd measurements are distributed by acoustic transfer (non-contact dispensing) in 100% DMSO. The compounds were then diluted directly into the assays such that the final concentration of DMSO was 0.9%. In case of % inhibition, test compounds were prepared as 40× stocks in 100% DMSO and directly diluted into the assay. All reactions performed in polypropylene 384-well plate. Each was a final volume of 0.02 ml. The assay plates were incubated at room temperature with shaking for 1 hour and the affinity beads were washed with wash buffer (1×PBS, 0.05% Tween 20). The beads were then re-suspended in elution buffer (1×PBS, 0.05% Tween 20, 0.5 μM non-biotinylated affinity ligand) and incubated at room temperature with shaking for 30 minutes. The kinase concentration in the eluates was measured by qPCR.
The CSF1R kinase binding activity results are shown in tables 1 (Kd) and 2 (percent inhibition at a concentration of 0.1 uM of compound to be tested).
Binding constants (Kds) were calculated with a standard dose-response curve using the Hill equation: […]
The Hill Slope was set to −1.
Curves were fitted using a non-linear least square fit with the Levenberg-Marquardt algorithm.
Binding % inhibition were calculated with as below:
[formula] • negative control=DMSO (100% Ctrl) • positive control=control compound (0% Ctrl)

[1] = read-out: CSF1R kinase binding activity, Percent (%) inhibition
[2] = read-out: CSF1R kinase binding activity, Range

Chain of CSF1R (P07333 20-972): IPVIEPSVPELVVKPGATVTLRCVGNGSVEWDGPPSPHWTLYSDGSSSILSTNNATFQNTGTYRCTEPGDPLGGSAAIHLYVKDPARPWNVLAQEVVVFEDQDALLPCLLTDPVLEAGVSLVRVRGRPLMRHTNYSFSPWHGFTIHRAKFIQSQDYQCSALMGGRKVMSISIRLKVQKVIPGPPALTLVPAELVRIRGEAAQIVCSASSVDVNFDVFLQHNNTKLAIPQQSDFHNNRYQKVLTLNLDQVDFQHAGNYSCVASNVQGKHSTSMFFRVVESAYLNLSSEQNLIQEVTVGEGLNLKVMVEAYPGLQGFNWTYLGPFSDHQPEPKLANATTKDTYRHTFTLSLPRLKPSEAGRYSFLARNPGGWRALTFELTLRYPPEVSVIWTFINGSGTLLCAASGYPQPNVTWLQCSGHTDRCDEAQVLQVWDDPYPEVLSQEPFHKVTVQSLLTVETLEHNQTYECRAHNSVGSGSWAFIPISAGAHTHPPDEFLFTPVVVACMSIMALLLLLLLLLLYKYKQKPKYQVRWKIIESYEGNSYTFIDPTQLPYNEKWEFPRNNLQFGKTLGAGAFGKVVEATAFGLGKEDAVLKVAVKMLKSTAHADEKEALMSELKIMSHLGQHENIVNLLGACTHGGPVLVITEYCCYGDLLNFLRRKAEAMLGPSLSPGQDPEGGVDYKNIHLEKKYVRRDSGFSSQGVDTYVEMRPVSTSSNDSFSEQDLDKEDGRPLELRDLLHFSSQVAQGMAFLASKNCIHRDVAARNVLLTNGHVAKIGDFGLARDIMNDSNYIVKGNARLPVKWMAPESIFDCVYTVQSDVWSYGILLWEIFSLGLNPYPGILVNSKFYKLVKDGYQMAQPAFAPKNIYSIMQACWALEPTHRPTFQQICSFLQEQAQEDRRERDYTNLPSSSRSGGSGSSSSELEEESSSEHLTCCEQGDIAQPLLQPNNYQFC

Structure (SMILES)	inhibition at 0.1 µM [1]	inhibition at 0.1 µM [2]	Kd
CNCCn1cc(OCC(F)(F)F)c(C(=O)Nc2ccc(Oc3ccnc4cc(OC)c(OC)cc34)nc2)n1 [Compound 137]	6%	< 50%	–
COc1cc2nccc(Oc3ccc(NC(=O)c4nn(C5CC5)cc4NCCC(F)(F)F)nn3)c2cc1OC [Compound 146]	43%	< 50%	–
COc1cc2nccc(Oc3ccc(NC(=O)c4nn(CC5COC5)cc4OCC(F)(F)F)cn3)c2cc1OC [Compound 134]	18%	< 50%	–
COc1cc2nccc(Oc3ccc(NC(=O)c4nn(C)cc4OCC(F)(F)F)nn3)c2cc1OC [Compound 102]	87%	≥ 80%	–
COc1cc2nccc(Oc3ccc(NC(=O)c4nn(CCOC5CC5)cc4OCC(F)(F)F)cc3)c2cc1OC [Compound 118]	93%	≥ 80%	–
COCCn1cc(OCC(F)(F)F)c(C(=O)Nc2ccc(Oc3ccnc4cc(OC)c(OC)cc34)cn2)n1 [Compound 10]	98%	≥ 80%	< 100 nM
COc1cc2nccc(Oc3ccc(NC(=O)c4nn(C5CC5)cc4OCC(F)F)nn3)c2cc1OC [Compound 162]	91%	≥ 80%	–
CNCCn1cc(OCC(F)(F)F)c(C(=O)Nc2ccc(Oc3ccnc4cc(OC)c(OC)cc34)c(F)c2)n1 [Compound 155]	22%	< 50%	–
COCCOc1cn(C2CC2)nc1C(=O)Nc1ccc(Oc2ccnc3cc(OC)c(OC)cc23)cn1 [Compound 107]	90%	≥ 80%	–
COc1cc2nccc(Oc3ccc(NC(=O)c4nn(C5CCN(C)C5)cc4OCC(F)(F)F)cc3F)c2cc1OC (stereo not drawn) [Compound 96]	57%	50 to 80%	–
COc1cc2nccc(Oc3ccc(NC(=O)c4nn(CC(C)C)cc4OCC(F)(F)F)nn3)c2cc1OC [Compound 124]	95%	≥ 80%	–
COCCn1cc(OCC(F)(F)F)c(C(=O)Nc2ccc(Oc3ccnc4cc(OC)c(OC)cc34)nn2)n1 [Compound 126]	78%	50 to 80%	–
COc1cc2nccc(Oc3ccc(NC(=O)c4nn(CC(C)O)cc4OCC(F)(F)F)cn3)c2cc1OC (stereo not drawn) [Compound 136]	23%	< 50%	–
COCCn1cc(OCC(F)(F)F)c(C(=O)Nc2ccc(Oc3ccnc4cc(OC)c(OC)cc34)nc2)n1 [Compound 104]	46%	< 50%	–
COc1cc2nccc(Oc3ccc(NC(=O)c4nn(CCN)cc4OCC(F)(F)F)cn3)c2cc1OC [Compound 135]	4%	< 50%	–
CNCCOc1cn(C2CC2)nc1C(=O)Nc1ccc(Oc2ccnc3cc(OC)c(OC)cc23)cn1 [Compound 141]	23%	< 50%	–
COc1cc2nccc(Oc3ccc(NC(=O)c4nn(C5CCN(C)C5)cc4OCC(F)(F)F)cn3)c2cc1OC (stereo not drawn) [Compound 133]	9%	< 50%	–
COc1cc2nccc(Oc3ccc(NC(=O)c4nn(CC5COC5)cc4OCC(F)(F)F)cc3)c2cc1OC [Compound 101]	45%	< 50%	–
CNCCn1cc(OCC(F)(F)F)c(C(=O)Nc2ccc(Oc3ccnc4cc(OC)c(OC)cc34)c(C)c2)n1 [Compound 156]	49%	< 50%	–
COc1cc2nccc(Oc3ccc(NC(=O)c4nn(CCOC5CC5)cc4OCC(F)(F)F)c(F)c3)c2cc1OC [Compound 115]	94%	≥ 80%	–

Structure (SMILES)	inhibition at 0.1 µM [1]	inhibition at 0.1 µM [2]	Kd
COc1cc2nccc(Oc3ccc(NC(=O)c4nn(C5CCN(C)C5)cc4OCC(F)(F)F)cc3C)c2cc1OC (stereo not drawn) [Compound 98]	60%	50 to 80%	–
COc1cc2nccc(Oc3ccc(NC(=O)c4nn(CC5COC5)cc4OCC(F)(F)F)nc3)c2cc1OC [Compound 92]	100%	≥ 80%	–
COc1cc2nccc(Oc3ccc(NC(=O)c4nn(C5CC5)cc4OCCF)nc3)c2cc1OC [Compound 110]	98%	≥ 80%	–
CCCn1cc(OCC(F)F)c(C(=O)Nc2ccc(Oc3ccnc4cc(OC)c(OC)cc34)cn2)n1 [Compound 12]	98%	≥ 80%	< 100 nM
COc1cc2nccc(Oc3ccc(NC(=O)c4nn(C5CCCC5)cc4OCC(F)(F)F)cn3)c2cc1OC [Compound 131]	21%	< 50%	–
COCCOc1cn(CC(C)O)nc1C(=O)Nc1ccc(Oc2ccnc3cc(OC)c(OC)cc23)cn1 (stereo not drawn) [Compound 150]	74%	50 to 80%	–
COc1cc2nccc(Oc3ccc(NC(=O)c4nn(C5CCNC5)cc4OCC(F)(F)F)cn3)c2cc1OC (stereo not drawn) [Compound 132]	16%	< 50%	–
CCCn1cc(OCCOC)c(C(=O)Nc2ccc(Oc3ccnc4cc(OC)c(OC)cc34)cn2)n1 [Compound 105]	91%	≥ 80%	–
COc1cc2nccc(Oc3ccc(NC(=O)c4n[nH]cc4OCC(F)(F)F)nc3)c2cc1OC [Compound 16]	99%	≥ 80%	–
COc1cc2nccc(Oc3ccc(NC(=O)c4nn(C5CCCC5)cc4OCC(F)(F)F)nn3)c2cc1OC [Compound 121]	98%	≥ 80%	–
CCCn1cc(OCC(F)(F)F)c(C(=O)Nc2ccc(Oc3ccnc4cc(OC)c(OC)cc34)c(C(F)(F)F)c2)n1 [Compound 114]	27%	< 50%	–
CCCn1cc(NCCC(F)(F)F)c(C(=O)Nc2ccc(Oc3ccnc4cc(OC)c(OC)cc34)cn2)n1 [Compound 158]	91%	≥ 80%	–
COc1cc2nccc(Oc3ccc(NC(=O)c4nn(CCOC5CC5)cc4OCC(F)(F)F)cc3C)c2cc1OC [Compound 117]	94%	≥ 80%	–
COc1cc2nccc(Oc3ccc(NC(=O)c4nn(CCOC5CC5)cc4OCC(F)(F)F)nc3)c2cc1OC [Compound 153]	95%	≥ 80%	–
CCCn1cc(OCC2CNC2)c(C(=O)Nc2ccc(Oc3ccnc4cc(OC)c(OC)cc34)cn2)n1 [Compound 159]	64%	50 to 80%	–
CCn1cc(OCC(F)(F)F)c(C(=O)Nc2ccc(Oc3ccnc4cc(OC)c(OC)cc34)cn2)n1 [Compound 4]	98%	≥ 80%	< 100 nM
CCCn1cc(OCC2COC2)c(C(=O)Nc2ccc(Oc3ccnc4cc(OC)c(OC)cc34)cn2)n1 [Compound 106]	95%	≥ 80%	–
COc1cc2nccc(Oc3ccc(NC(=O)c4nn(CCO)cc4OCC(F)(F)F)cn3)c2cc1OC [Compound 129]	24%	< 50%	–
COc1cc2nccc(Oc3ccc(NC(=O)c4nn(CCOC5CC5)cc4OCC(F)(F)F)cn3)c2cc1OC [Compound 130]	41%	< 50%	–
